Consider 14 molecules from patent publication US11173151B2, “Substituted triazole derivatives and uses thereof” (BAYER AKTIENGESELLSCHAFT, priority 2017, dated 2021).

Test [1] concerns the target T1, human V1a receptor (Homo sapiens, UniProt P37288).
T1 construct: expressed in transfected cells; host or cells: CHO K1 (ATCC), also stably transfected with a modified aequorin
The test is described as follows: Cellular in vitro assay for determining vasopressin receptor activity, V1a receptor cell line (CHO, aequorin luminescence). In kind it is cell-based. The settings on record: for IC50: CHO cell line transfected with human V1a receptor, [Arg]-vasopressin at EC50 concentration, read-out: IC50 hV1a; for ratio IC50 hV2/hV1a: selectivity ratio IC50 hV2 / IC50 hV1a. In a few lines:
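Antagonism is measured in stable CHO K1 transfectants coexpressing the Gαq-coupled receptor and a calcium-sensitive aequorin photoprotein. Agonist challenge uses [Arg]-vasopressin at EC50 after a 10-minute compound exposure; IC50 values come from the luminescence signal.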

In test [2] the target is T2, human V2 receptor (Homo sapiens, UniProt P30518).
T2 construct: expressed in transfected cells; host or cells: CHO K1 (ATCC) expressing firefly luciferase under a CRE-responsive promoter
T2 sequence (P30518 whole entry): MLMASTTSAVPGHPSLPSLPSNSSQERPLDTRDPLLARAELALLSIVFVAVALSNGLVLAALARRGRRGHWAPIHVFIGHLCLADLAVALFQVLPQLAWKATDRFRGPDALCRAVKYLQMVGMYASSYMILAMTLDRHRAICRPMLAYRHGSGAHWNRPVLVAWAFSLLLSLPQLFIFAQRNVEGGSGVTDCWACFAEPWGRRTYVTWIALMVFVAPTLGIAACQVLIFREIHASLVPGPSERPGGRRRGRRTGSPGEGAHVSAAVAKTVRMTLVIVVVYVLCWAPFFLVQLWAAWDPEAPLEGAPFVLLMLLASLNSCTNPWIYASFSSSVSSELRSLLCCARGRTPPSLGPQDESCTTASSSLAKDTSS
The test is described as follows: Cellular in vitro assay for determining vasopressin receptor activity, V2 receptor cell line (CHO, CRE-luciferase). Format: cell-based. As to conditions: CHO cell line transfected with human V2 receptor; [Arg8]-vasopressin at EC50 concentration, 3 hours; read-out: IC50 hV2.

T1 sequence (P37288 whole entry): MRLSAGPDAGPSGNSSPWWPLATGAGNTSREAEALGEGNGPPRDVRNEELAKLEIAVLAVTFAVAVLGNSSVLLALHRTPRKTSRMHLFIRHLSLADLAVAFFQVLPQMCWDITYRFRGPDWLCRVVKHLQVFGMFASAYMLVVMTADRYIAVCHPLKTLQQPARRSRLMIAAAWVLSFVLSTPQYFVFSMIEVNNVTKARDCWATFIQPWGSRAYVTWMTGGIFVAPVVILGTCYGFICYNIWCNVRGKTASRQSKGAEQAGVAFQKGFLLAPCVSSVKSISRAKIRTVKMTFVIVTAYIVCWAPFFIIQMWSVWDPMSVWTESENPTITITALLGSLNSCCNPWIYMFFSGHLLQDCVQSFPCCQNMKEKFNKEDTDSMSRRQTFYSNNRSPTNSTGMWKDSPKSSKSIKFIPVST

As a reminder, the IC50 is the concentration that inhibits the measured activity by half. Turning to `Cc1cc(NC(=O)c2ccccc2-n2cnc(Cn3nc(-c4ccc(Cl)cc4)n(C[C@H](O)C(F)(F)F)c3=O)n2)ccc1F` [Example 228, 2-[3-({3-(4-Chlorophenyl)-5-oxo-4-[(2S)-3,3,3-trifluoro-2-hydroxypropyl]-4,5-dihydro-1H-1,2,4-triazol-1-yl}methyl)-1H-1,2,4-triazol-1-yl]-N-(4-fluoro-3-methylphenyl)benzamide], in test [1], the IC50 was 5.65 nM and the “ratio IC50 hV2/hV1a” value is recorded as 26.5. Besides, the IC50 in test [2] came out at 150 nM.

Turning to `Cc1ccc(F)cc1NC(=O)c1ccccc1-n1cnc(Cn2nc(-c3ccc(Cl)cc3)n(C[C@H](O)C(F)(F)F)c2=O)n1` [Example 229, 2-[3-({3-(4-Chlorophenyl)-5-oxo-4-[(2S)-3,3,3-trifluoro-2-hydroxypropyl]-4,5-dihydro-1H-1,2,4-triazol-1-yl}methyl)-1H-1,2,4-triazol-1-yl]-N-(5-fluoro-2-methylphenyl)benzamide], in test [1], the IC50 came to 2.35 nM and the “ratio IC50 hV2/hV1a” value is 21.1. The IC50 in test [2] was 49.5 nM.

For the molecule `Cc1ccnc(NC(=O)c2ccccc2-n2cnc(Cn3nc(-c4ccc(Cl)cc4)n(C[C@H](O)C(F)(F)F)c3=O)n2)c1` [Example 230, 2-[3-({3-(4-Chlorophenyl)-5-oxo-4-[(2S)-3,3,3-trifluoro-2-hydroxypropyl]-4,5-dihydro-1H-1,2,4-triazol-1-yl}methyl)-1H-1,2,4-triazol-1-yl]-N-(4-methylpyridin-2-yl)benzamide], in test [1], the IC50 is 8.5 nM and the “ratio IC50 hV2/hV1a” value stood at 6.6. The IC50 in test [2] came out at 56.5 nM.

Take `CONC(=O)c1ccccc1-n1cnc(Cn2nc(-c3ccc(Cl)cc3)n(C[C@H](O)C(F)(F)F)c2=O)n1` [Example 232, 2-[3-({3-(4-Chlorophenyl)-5-oxo-4-[(2S)-3,3,3-trifluoro-2-hydroxypropyl]-4,5-dihydro-1H-1,2,4-triazol-1-yl}methyl)-1H-1,2,4-triazol-1-yl]-N-methoxybenzamide]: the values for the IC50 in test [1] and in test [2] were 2.2 nM and 535 nM, respectively. The “ratio IC50 hV2/hV1a” value in test [1] is 243.2.

For the molecule `N[C@H]1CCCC[C@@H]1NC(=O)c1ccccc1-n1cnc(Cn2nc(-c3ccc(Cl)cc3)n(C[C@H](O)C(F)(F)F)c2=O)n1` [Example 233, N-[(1S,2S)-2-Aminocyclohexyl]-2-[3-({3-(4-chlorophenyl)-5-oxo-4-[(2S)-3,3,3-trifluoro-2-hydroxypropyl]-4,5-dihydro-1H-1,2,4-triazol-1-yl}methyl)-1H-1,2,4-triazol-1-yl]benzamide], in test [1], the IC50 was found to be 14.4 nM and the “ratio IC50 hV2/hV1a” value is 463.7. The IC50 in test [2] is 6700 nM.

In the case of `N[C@@H]1CCCC[C@@H]1NC(=O)c1ccccc1-n1cnc(Cn2nc(-c3ccc(Cl)cc3)n(C[C@H](O)C(F)(F)F)c2=O)n1` [Example 234, N-[(1S,2R)-2-Aminocyclohexyl]-2-[3-({3-(4-chlorophenyl)-5-oxo-4-[(2S)-3,3,3-trifluoro-2-hydroxypropyl]-4,5-dihydro-1H-1,2,4-triazol-1-yl}methyl)-1H-1,2,4-triazol-1-yl]benzamide], in test [1], the IC50 is 6.95 nM and the “ratio IC50 hV2/hV1a” value is 417.3. The IC50 in test [2] was determined as 2900 nM.

`O=C(NCc1ccc(F)cc1)c1ccccc1-n1cnc(Cn2nc(-c3ccc(Cl)cc3)n(C[C@H](O)C(F)(F)F)c2=O)n1` [Example 235, 2-[3-({3-(4-Chlorophenyl)-5-oxo-4-[(2S)-3,3,3-trifluoro-2-hydroxypropyl]-4,5-dihydro-1H-1,2,4-triazol-1-yl}methyl)-1H-1,2,4-triazol-1-yl]-N-(4-fluorobenzyl)benzamide]: the IC50 in test [1] came out at 8.7 nM; in test [2], 355 nM. Also, in test [1], the “ratio IC50 hV2/hV1a” value worked out at 40.8.

As for `O=C(NCc1cccc(F)c1)c1ccccc1-n1cnc(Cn2nc(-c3ccc(Cl)cc3)n(C[C@H](O)C(F)(F)F)c2=O)n1` [Example 236, 2-[3-({3-(4-Chlorophenyl)-5-oxo-4-[(2S)-3,3,3-trifluoro-2-hydroxypropyl]-4,5-dihydro-1H-1,2,4-triazol-1-yl}methyl)-1H-1,2,4-triazol-1-yl]-N-(3-fluorobenzyl)benzamide], the IC50 in test [1] came to 7.05 nM; in test [2], 340 nM. In addition, in test [1], the “ratio IC50 hV2/hV1a” value came to 48.2.

As to `C[C@H](NC(=O)c1ccccc1-n1cnc(Cn2nc(-c3ccc(Cl)cc3)n(C[C@H](O)C(F)(F)F)c2=O)n1)C(N)=O` [Example 237, N-[(2S)-1-Amino-1-oxopropan-2-yl]-2-[3-({3-(4-chlorophenyl)-5-oxo-4-[(2S)-3,3,3-trifluoro-2-hydroxypropyl]-4,5-dihydro-1H-1,2,4-triazol-1-yl}methyl)-1H-1,2,4-triazol-1-yl]benzamide], in test [1], the IC50 turned out to be 15.5 nM and the “ratio IC50 hV2/hV1a” value is 28.7. Moreover, the IC50 in test [2] amounted to 445 nM.

Regarding `Cc1nnc(NC(=O)c2ccccc2-n2cnc(Cn3nc(-c4ccc(Cl)cc4)n(C[C@H](O)C(F)(F)F)c3=O)n2)s1` [Example 238, 2-[3-({3-(4-Chlorophenyl)-5-oxo-4-[(2S)-3,3,3-trifluoro-2-hydroxypropyl]-4,5-dihydro-1H-1,2,4-triazol-1-yl}methyl)-1H-1,2,4-triazol-1-yl]-N-(5-methyl-1,3,4-thiadiazol-2-yl)benzamide], in test [1], the IC50 was found to be 13.5 nM and the “ratio IC50 hV2/hV1a” value was 3.3. Also, in test [2], the IC50 was determined as 44.5 nM.

As for `O=C(NCc1ccc(F)c(F)c1)c1ccccc1-n1cnc(Cn2nc(-c3ccc(Cl)cc3)n(C[C@H](O)C(F)(F)F)c2=O)n1` [Example 239, 2-[3-({3-(4-Chlorophenyl)-5-oxo-4-[(2S)-3,3,3-trifluoro-2-hydroxypropyl]-4,5-dihydro-1H-1,2,4-triazol-1-yl}methyl)-1H-1,2,4-triazol-1-yl]-N-(3,4-difluorobenzyl)benzamide], in test [1], the IC50 was 7.35 nM and the “ratio IC50 hV2/hV1a” value is 32.7. Besides, the IC50 in test [2] stood at 240 nM.

With `Cc1ccnc(NC(=O)c2ccccc2-n2cnc(Cn3nc(-c4ccc(Cl)cc4)n(C[C@H](O)C(F)(F)F)c3=O)n2)n1` [Example 240, 2-[3-({3-(4-Chlorophenyl)-5-oxo-4-[(2S)-3,3,3-trifluoro-2-hydroxypropyl]-4,5-dihydro-1H-1,2,4-triazol-1-yl}methyl)-1H-1,2,4-triazol-1-yl]-N-(4-methylpyrimidin-2-yl)benzamide], the IC50 in test [1] was determined as 12.5 nM; in test [2], 300 nM. For the same molecule, the “ratio IC50 hV2/hV1a” value in test [1] was found to be 24.0.

On to `O=C(NCCF)c1ccccc1-n1cnc(Cn2nc(-c3ccc(Cl)cc3)n(C[C@H](O)C(F)(F)F)c2=O)n1` [Example 241, 2-[3-({3-(4-Chlorophenyl)-5-oxo-4-[(2S)-3,3,3-trifluoro-2-hydroxypropyl]-4,5-dihydro-1H-1,2,4-triazol-1-yl}methyl)-1H-1,2,4-triazol-1-yl]-N-(2-fluoroethyl)benzamide], for which, in test [1], the IC50 is 2.2 nM and the “ratio IC50 hV2/hV1a” value was determined as 33.4. Besides, in test [2], the IC50 stood at 73.5 nM.

Take `O=C(NCc1c(F)cccc1F)c1ccccc1-n1cnc(Cn2nc(-c3ccc(Cl)cc3)n(C[C@H](O)C(F)(F)F)c2=O)n1` [Example 242, 2-[3-({3-(4-Chlorophenyl)-5-oxo-4-[(2S)-3,3,3-trifluoro-2-hydroxypropyl]-4,5-dihydro-1H-1,2,4-triazol-1-yl}methyl)-1H-1,2,4-triazol-1-yl]-N-(2,6-difluorobenzyl)benzamide]: in test [1], the IC50 is 5.7 nM and the “ratio IC50 hV2/hV1a” value was 22.2. For the same molecule, the IC50 in test [2] was found to be 126 nM.
